From patent US8841413B2, “Antidiabetic compounds” (Cadila Healthcare Limited, priority 2006, dated 2014)
Where two headings read alike, the source gives them in different places.

How the values were obtained:
Human GLP-1 receptor = target: T1, Human GLP-1 receptor (Homo sapiens, UniProt P43220); assay type: cell-based
T1 construct: The full-length cDNA was cloned in pcDNA3.1(+); expressed in transfected cells
Description: The novel peptidomimetics were screened for Human GLP-1 receptor (HGLP-1 R) agonist activity (in vitro), using the cAMP cell-based assay, in stably transfected CHO/human GLP1R cells. […] CHO cells were grown in Ham's F12 medium containing L-Glutamine (2 mM), HEPES (25 mM), NaHCO3 (1.1 g/L) and supplemented with NewBorn Calf Serum (NBCS; 10%), Penicillin (50 U/ml (v/v)) and Streptomycin (50 ug/ml (v/v)). Cells were split every 3 days 1:8.
The cDNA encoding the human GLP-1 receptor was isolated by RT-PCR according to standard protocol. The full-length cDNA was cloned in pcDNA3.1(+). […] Clones expressing the receptor were generated by G418 (800 μg/ml active, Sigma) selection. The stable clones were thereafter maintained at 500 ug/ml (G418). The selected clone was used between passages 9-25 for cAMP assays.
The trypsin was inactivated using Ham's F12 medium containing 10% NBCS and the cells were suspended in 2 ml of complete medium. […] The medium was aspirated off from the 12 well plate and the cells were washed once using Ham's F12 (plain). […] The cells were incubated with the test compounds for 30 min in humidified atmosphere and 37° C. After the incubation, the medium was removed and cells were washed once with plain Ham's F12. Subsequently, the cells were lysed by adding 500 ul of ice cold 0.1 N HCl to each well and shaking for 30 minutes at 200 rpm. […] The total cAMP was estimated from the sample according to the manufacturer's protocol using Cyclic AMP immunoassay kit (R&D systems, Minneapolis. MN). The remaining supernatant is used to determine the protein concentration using micro BCA (Sigma). Data is calculated as percent of control (Vehicle: water) and expressed as Mean±SD.

[1] = Stability against liver microsomes; assay type: in vitro ADME, human; details: 2 μM, 37° C.; for half-life: human, microsomes, read-out: half-life (t1/2) with liver microsomes
Description: (§1) Reactions were terminated by the addition of TFA/H2O (15 mL, 10% (v/v)). […] The column was equilibrated with TFA/H2O, at a flow rate of 1 mL/min. […] The absorbance was monitored at 206 nm using UV detector and peaks were collected manually prior to ESI-MS analysis.

DPP IV = DPP IV (Homo sapiens, UniProt P27487); test: Stability against DPP IV enzyme; assay type: in vitro ADME; details: 2 μM, 37° C.; for half-life: read-out: half-life (t1/2) with DPP-IV enzyme
Description: as §1

[2] = Stability in simulated intestinal fluid; assay type: in vitro ADME; details: 2 μM, 37° C., pH 7.5; for half-life: simulated gi fluid, read-out: half-life (t1/2) in simulated intestinal fluid
Description: as §1

[3] = Stability in human plasma; assay type: in vitro ADME; details: 2 μM, 37° C.; for half-life: human, plasma, read-out: half-life (t1/2) in human plasma
Description: as §1

[4] = Stability in simulated gastric fluid; assay type: in vitro ADME; details: 2 μM, 37° C., pH 1.5, pepsin; for half-life: simulated gi fluid, read-out: half-life (t1/2) in simulated gastric fluid
Description: as §1

Chain of DPP IV (P27487 whole entry, species assumed): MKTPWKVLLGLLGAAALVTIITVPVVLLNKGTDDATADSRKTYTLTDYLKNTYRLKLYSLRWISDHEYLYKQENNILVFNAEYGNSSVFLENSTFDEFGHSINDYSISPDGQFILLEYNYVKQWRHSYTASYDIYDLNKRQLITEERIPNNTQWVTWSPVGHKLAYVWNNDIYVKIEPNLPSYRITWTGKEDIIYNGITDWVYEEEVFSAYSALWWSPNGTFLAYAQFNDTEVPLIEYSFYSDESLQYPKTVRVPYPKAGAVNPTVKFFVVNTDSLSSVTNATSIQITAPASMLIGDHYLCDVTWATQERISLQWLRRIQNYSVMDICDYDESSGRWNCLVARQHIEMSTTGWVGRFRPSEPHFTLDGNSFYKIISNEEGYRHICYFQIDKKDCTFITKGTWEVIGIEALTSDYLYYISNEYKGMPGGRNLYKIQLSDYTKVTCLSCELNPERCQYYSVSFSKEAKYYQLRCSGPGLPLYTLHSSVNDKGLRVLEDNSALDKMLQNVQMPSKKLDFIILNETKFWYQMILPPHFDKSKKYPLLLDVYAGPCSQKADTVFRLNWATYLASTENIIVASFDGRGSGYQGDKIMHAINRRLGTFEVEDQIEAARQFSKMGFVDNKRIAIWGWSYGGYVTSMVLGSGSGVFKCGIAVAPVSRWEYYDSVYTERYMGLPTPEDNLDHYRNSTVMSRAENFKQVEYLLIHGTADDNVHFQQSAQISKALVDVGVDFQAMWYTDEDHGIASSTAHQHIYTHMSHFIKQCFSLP
T1 sequence (P43220 24-463): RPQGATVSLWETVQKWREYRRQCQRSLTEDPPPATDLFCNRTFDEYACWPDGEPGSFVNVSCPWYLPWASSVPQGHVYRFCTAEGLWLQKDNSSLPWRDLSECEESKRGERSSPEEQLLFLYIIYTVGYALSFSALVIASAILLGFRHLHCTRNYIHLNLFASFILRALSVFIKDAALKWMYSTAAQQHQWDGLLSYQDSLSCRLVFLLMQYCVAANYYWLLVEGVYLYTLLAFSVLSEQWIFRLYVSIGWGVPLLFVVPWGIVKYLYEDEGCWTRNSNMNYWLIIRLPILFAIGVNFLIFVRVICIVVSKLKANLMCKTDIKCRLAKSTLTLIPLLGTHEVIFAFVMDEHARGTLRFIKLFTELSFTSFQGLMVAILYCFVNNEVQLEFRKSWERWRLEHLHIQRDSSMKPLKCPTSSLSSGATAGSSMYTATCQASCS

SMILES	Human GLP-1 R activity (cAMP release), % activity with respect to control (Human GLP-1 receptor; 1 nM test compound) [%]	Human GLP-1 R activity (cAMP release), % activity with respect to control (Human GLP-1 receptor; 10 nM test compound) [%]	Human GLP-1 R activity (cAMP release), % activity with respect to control (Human GLP-1 receptor; 100 nM test compound) [%]	Human GLP-1 R activity (cAMP release), % activity with respect to control (Human GLP-1 receptor; 1 μM test compound) [%]	Human GLP-1 R activity (cAMP release), % activity with respect to control (Human GLP-1 receptor; 10 μM test compound) [%]	% degradation in 24 h when incubated with liver microsomes [1] [%]	half-life [1] [min]	% degradation in 24 h when incubated with DPP-IV enzyme (DPP IV) [%]	half-life (DPP IV) [min]	% degradation in 24 h when incubated with simulated intestinal fluid [2] [%]	half-life [2] [min]	% degradation in 24 h when incubated with human plasma [3] [%]	half-life [3] [min]	% degradation in 24 h when incubated with simulated gastric fluid [4] [%]	half-life [4] [min]	half-life (t1/2) with liver microsomes [1]
CCc1cc(OC)ccc1-c1ccc(CC(NC(=O)[C@H](CC(=O)O)NC(=O)[C@H](CO)NC(=O)[C@@H](NC(=O)[C@H](Cc2ccccc2)NC(=O)[C@@H](NC(=O)CNC(=O)[C@H](CCC(N)=O)NC(=O)C(C)(C)NC(=O)[C@@H](N)Cc2c[nH]cn2)[C@@H](C)O)[C@@H](C)O)C(=O)NC(Cc2ccc(-c3ccccc3F)cc2)C(N)=O)cc1 (single isomer, unassigned) [compound 15]	66 ± 0.022	97 ± 0.46	99 ± 0.41	99 ± 0.66	99 ± 0.03	85	120	00	> 1440	00	> 1440	00	> 1440	45	240	
CCc1cc(OC)ccc1-c1ccc(CC(NC(=O)[C@H](CC(=O)O)NC(=O)[C@H](CO)NC(=O)[C@@H](NC(=O)[C@H](Cc2ccccc2)NC(=O)[C@@H](NC(=O)CNC(=O)[C@H](CCC(N)=O)NC(=O)C2(NC(=O)[C@@H](N)Cc3c[nH]cn3)CC2)[C@@H](C)O)[C@@H](C)O)C(=O)NC(Cc2ccc(-c3ccccc3C)cc2)C(N)=O)cc1 (single isomer, unassigned) [compound 17]	78 ± 0.12	99 ± 0.15	99 ± 0.18	99 ± 0.03	99 ± 0.09	82	120	00	> 1440	00	> 1440	00	> 1440	49	240	
CCc1cc(OC)ccc1-c1ccc(CC(NC(=O)[C@H](CC(=O)O)NC(=O)[C@H](CO)NC(=O)[C@@H](NC(=O)C(C)(Cc2ccccc2F)NC(=O)[C@@H](NC(=O)CNC(=O)[C@H](CCC(N)=O)NC(=O)C(C)(C)NC(=O)[C@@H](N)Cc2c[nH]cn2)[C@@H](C)O)[C@@H](C)O)C(=O)NC(Cc2ccc(-c3ccccc3F)cc2)C(N)=O)cc1 (single isomer, unassigned) [compound 31]	93 ± 0.10	99 ± 0.46	99 ± 0.41	99 ± 0.66	99 ± 0.03	31		00	> 1440	00	> 1440	00	> 1440	00	> 1440	(5) h
CCc1cc(OC)ccc1-c1ccc(CC(NC(=O)[C@H](CC(=O)O)NC(=O)[C@H](CO)NC(=O)[C@@H](NC(=O)[C@H](Cc2ccccc2)NC(=O)[C@@H](NC(=O)CNC(=O)[C@H](CCC(N)=O)NC(=O)C(C)(C)NC(=O)[C@@H](N)Cc2c[nH]cn2)[C@@H](C)O)[C@@H](C)O)C(=O)NC(Cc2ccc(-c3ccccc3C)nc2)C(N)=O)cc1 (single isomer, unassigned) [compound 14]	62 ± 0.11	94 ± 0.09	99 ± 0.06	99 ± 0.14	99 ± 0.19	84	120	00	> 1440	00	> 1440	00	> 1440	55	240	
CCc1cc(OC)ccc1-c1ccc(CC(NC(=O)[C@H](CC(=O)O)NC(=O)[C@H](CO)NC(=O)[C@@H](NC(=O)C(C)(Cc2ccccc2F)NC(=O)[C@@H](NC(=O)CNC(=O)[C@H](CCC(N)=O)NC(=O)C2(NC(=O)[C@@H](N)Cc3c[nH]cn3)CC2)[C@@H](C)O)[C@@H](C)O)C(=O)NC(Cc2ccc(-c3ccccc3C)nc2)C(N)=O)cc1 (single isomer, unassigned) [compound 34]	99 ± 0.12	99 ± 0.08	99 ± 0.11	99 ± 0.12	99 ± 0.16	32		00	> 1440	00	> 1440	00	> 1440	00	> 1440	(5) h
CCc1cc(OC)ccc1-c1ccc(CC(NC(=O)[C@H](CC(=O)O)NC(=O)[C@H](CO)NC(=O)[C@@H](NC(=O)[C@H](Cc2ccccc2)NC(=O)[C@@H](NC(=O)CNC(=O)[C@H](CCC(N)=O)NC(=O)C2(NC(=O)[C@@H](N)Cc3c[nH]cn3)CC2)[C@@H](C)O)[C@@H](C)O)C(=O)NC(Cc2ccc(-c3ccccc3F)cc2)C(N)=O)cc1 (single isomer, unassigned) [compound 19]	96 ± 0.02	99 ± 0.46	99 ± 0.41	99 ± 0.66	99 ± 0.03	84	120	00	> 1440	00	> 1440	00	> 1440	43	240	
